# Where two headings read alike, the source gives them in different places.
# What was measured:
# [1] = tested on: VCaP cells; experiment: Cellular growth inhibition assay for VCaP cells (CellTiter-Glo, 72 hours); assay type: cell-based, human
# Method in brief: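 Luminescent viability signal after 72 h of compound exposure gave GI50 values by four-parameter nonlinear regression. Compounds were added in 0.5% DMSO to cells plated 24 h earlier at 5000/well in DMEM containing 10% FBS.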
# [2] = tested on: T-Rex 293 cell line SC3 cells having increased expression of androgen receptor protein due to exposure to doxycycline; experiment: Cellular growth inhibition assay, T-Rex 293 SC3 cells with doxycycline (CellTiter-Glo, 72 hours); assay type: cell-based; settings: T-Rex 293 SC3 cells with increased androgen receptor expression due to doxycycline (10 ng/mL)
# Method in brief: (§1)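 Doxycycline (10 ng/mL) was either included or omitted to toggle wild-type androgen receptor expression in SC3 cells, a T-Rex 293 clone, grown in stripped-serum, phenol red-free medium. After 72 hours with compound, viable cells were quantified by CellTiter-Glo 2.0.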
# [3] = tested on: T47D cells; experiment: Cellular growth inhibition assay for T47D cells (CellTiter-Glo, 72 hours); assay type: cell-based, human; settings: 72 hours treatment
# Description: T47D cells were purchased from American Type Cell Culture (ATCC Cat #HTB-133) and then seeded on poly-D-lysine coated, black clear-bottom 384-well plates at 3000/well in 25 μL Dulbecco's Modified Eagle Medium (DMEM) supplemented with 10% w/w Fetal bovine serum (FBS), 0.2 units/mL recombinant human insulin (Gibco Cat #12585014), and 1% w/w Pen-Strep. Pen-Strep is a commercially available mixture of penicillin G and streptomycin, which is used in mammalian cell culture media to prevent bacterial contamination. Dulbecco's Modified Eagle Medium (DMEM) supplemented with 10% w/w fetal bovine serum (FBS), 0.2 units/mL recombinant human insulin, and 1% w/w Pen-Strep is herein referred to as Treatment Medium. Following seeding of cells in the plates, the plates were spun at 300×g for 30 seconds, then equilibrated to room temperature for 30 minutes, and then deposited in a humidified tissue culture incubator maintained at 37° C. with 5% CO2.
# At 24 hours after seeding of the cells, dilutions of test compound were prepared in DMSO and dissolved in Treatment Medium, to achieve a final DMSO concentration of 0.5% w/w, thereby providing the Test Compound Solution. A 25 μL aliquot of the Test Compound Solution was added to cells in the well plates. An equal volume of a solution containing DMSO and Treatment Medium was used as a negative control. Following treatment of cells with Test Compound Solution or said equal volume of a solution containing DMSO and Treatment Medium, the plates were spun at 300×g for 30 seconds, and then left in an incubator for 72 hours.
# At the end of the treatment duration, cell viability was quantified with CellTiter-Glo 2.0 reagent (Promega Cat #G9243). For this purpose, plates were equilibrated to room temperature for 30 minutes, and then 25 μL of CellTiter-Glo 2.0 reagent was added to cells in the plate wells. Plates were then agitated on a shaker for two minutes at 500 rpm and subsequently incubated at room temperature for 10 minutes. Following incubation, the plates were spun at 3000×g for 30 seconds, then sealed with an optical adhesive cover, and luminescence readings were measured with an EnVision Plate Reader (Perkin Elmer).
# Data was normalized using zero luminescence for baseline. A four-parameter non-linear regression curve fit was applied to dose-response data in GraphPad Prism data analysis software to determine the half-maximal growth inhibitory concentration (GI50) for each test compound.
# [4] = tested on: T-Rex 293 cell line SC3 cells lacking increased expression of androgen receptor protein; experiment: Cellular growth inhibition assay, T-Rex 293 SC3 cells without doxycycline (CellTiter-Glo, 72 hours); assay type: cell-based; settings: T-Rex 293 cell line SC3 cells not exposed to doxycycline (lacking increased androgen receptor expression)
# Method in brief: as §1
"GI50 ([1]; Homo sapiens, VCaP, 72 h)","GI50 ([3]; Homo sapiens, T47D, 72 h)",GI50 [1],GI50 [3],SMILES,GI50 ([2]; 72 h),GI50 ([4]; 72 h),GI50 [2],GI50 [4]
1500 to 3000 nM,> 3000 nM,,,Cc1sc2c(c1C)C(c1ccc(C[C@H]3C[C@@]4(CCCN(c5ccc(C(=O)N[C@H]6CC[C@H](Oc7ccc(C#N)c(Cl)c7)CC6)nn5)C4)C3)cc1)=N[C@@H](C)c1nnc(C)n1-2 [I-351],< 500 nM,> 3000 nM,,
< 500 nM,500 to 1500 nM,,,Cc1sc2c(c1C)C(c1ccc(OC[C@H]3CC[C@@]4(CCCN(c5ccc(C(=O)N[C@H]6CC[C@H](Oc7ccc(C#N)c(Cl)c7)CC6)nn5)C4)C3)nc1)=N[C@@H](Cc1ncco1)c1nnc(C)n1-2 [I-328],< 500 nM,< 500 nM,,
< 500 nM,500 to 1500 nM,,,Cc1sc2c(c1C)C(c1ccc(CNC(=O)Cc3ccc(C(=O)N[C@H]4CC[C@H](Oc5ccc(C#N)c(Cl)c5)CC4)nn3)cc1)=N[C@@H](Cc1ncco1)c1nnc(C)n1-2 [I-300],500 to 1500 nM,> 3000 nM,,
< 500 nM,< 500 nM,,,Cc1sc2c(c1C)C(c1ccc(C[C@@H]3CCCN(c4ccc(C(=O)N[C@H]5CC[C@H](Oc6ccc(C#N)c(Cl)c6)CC5)nn4)C3)cc1)=N[C@@H](Cc1ncco1)c1nnc(C)n1-2 [I-252],< 500 nM,< 500 nM,,
< 500 nM,500 to 1500 nM,,,[2H]C([2H])(c1ccc(C2=N[C@@H](Cc3ncco3)c3nnc(C)n3-c3sc(C)c(C)c32)cc1)N1CC2(CCCN(c3ccc(C(=O)N[C@H]4CC[C@H](Oc5ccc(C#N)c(Cl)c5)CC4)nn3)C2)C1 [I-390],< 500 nM,500 to 1500 nM,,
< 500 nM,< 500 nM,,,Cc1sc2c(c1C)C(c1ccc(OC3CC4(CCN(c5ccc(C(=O)N[C@H]6CC[C@H](Oc7ccc(C#N)c(Cl)c7)CC6)nn5)CC4)C3)cc1)=N[C@@H](C)c1nnc(C)n1-2 [I-334],< 500 nM,500 to 1500 nM,,
,,> 3000 nM,> 3000 nM,Cc1sc2c(c1C)C(c1ccc(OC[C@H]3C[C@]4(CCCN(c5ccc(C(=O)N[C@H]6CC[C@H](Oc7ccc(C#N)c(Cl)c7)CC6)nn5)C4)C3)cc1)=N[C@@H](Cc1ncco1)c1nnc(C)n1-2 [I-206],,,500 to 1500 nM,> 3000 nM
< 500 nM,< 500 nM,,,Cc1sc2c(c1C)C(c1ccc(N3CCC4(CC3)CCN(c3ccc(C(=O)N[C@H]5CC[C@H](Oc6ccc(C#N)c(Cl)c6)CC5)nn3)C4)cc1)=N[C@@H](Cc1ncco1)c1nnc(C)n1-2 [I-368],< 500 nM,< 500 nM,,
< 500 nM,< 500 nM,,,Cc1sc2c(c1C)C(c1ccc(CC3CC4(CCN(c5ccc(C(=O)N[C@H]6CC[C@H](Oc7ccc(C#N)c(Cl)c7)CC6)nn5)CC4)C3)cc1)=N[C@@H](Cc1ncco1)c1nnc(C)n1-2 [I-112],< 500 nM,< 500 nM,,
< 500 nM,500 to 1500 nM,,,Cc1sc2c(c1C)C(c1ccc(CO[C@H]3C[C@@]4(CCCN(c5ccc(C(=O)N[C@H]6CC[C@H](Oc7ccc(C#N)c(Cl)c7)CC6)nn5)C4)C3)cc1)=N[C@@H](C)c1nnc(C)n1-2 [I-353],< 500 nM,> 3000 nM,,
< 500 nM,< 500 nM,,,Cc1sc2c(c1C)C(c1ccc([C@H]3C[C@@H]3CC3CCCN(c4ccc(C(=O)N[C@H]5CC[C@H](Oc6ccc(C#N)c(Cl)c6)CC5)nn4)C3)cc1)=N[C@@H](Cc1ncco1)c1nnc(C)n1-2 (some centres unmarked) [I-202],< 500 nM,< 500 nM,,
< 500 nM,< 500 nM,,,Cc1sc2c(c1C)C(c1ccc([C@H]3C[C@H]([C@@H]4CCCN(c5ccc(C(=O)N[C@H]6CC[C@H](Oc7ccc(C#N)c(Cl)c7)CC6)nn5)C4)C3)cc1)=N[C@@H](Cc1ncco1)c1nnc(C)n1-2 [I-377],< 500 nM,< 500 nM,,
500 to 1500 nM,> 3000 nM,,,Cc1sc2c(c1C)C(c1ccc(C(=O)N3CC[C@]4(CCCN(c5ccc(C(=O)N[C@H]6CC[C@H](Oc7ccc(C#N)c(Cl)c7)CC6)nn5)C4)C3)cc1)=N[C@@H](Cc1ncco1)c1nnc(C)n1-2 [I-270],,,,
,500 to 1500 nM,,,Cc1sc2c(c1C)C(c1ccc(OC[C@H]3C[C@]4(CCCN(c5ccc(C(=O)N[C@H]6CC[C@H](Oc7ccc(C#N)c(Cl)c7)CC6)nn5)C4)C3)cc1)=N[C@@H](C)c1nnc(C)n1-2 [I-309],< 500 nM,> 3000 nM,,
> 3000 nM,500 to 1500 nM,,,Cc1sc2c(c1C)C(c1ccc(NCC(=O)N3CCC(c4ccc(C(=O)N[C@H]5CC[C@H](Oc6ccc(C#N)c(Cl)c6)CC5)nn4)CC3)cc1)=N[C@@H](Cc1ncco1)c1nnc(C)n1-2 [I-268],,,,
< 500 nM,500 to 1500 nM,,,CCNC(=O)C[C@@H]1N=C(c2ccc(CCCC3CCN(c4ccc(C(=O)N[C@H]5CC[C@H](Oc6ccc(C#N)c(Cl)c6)CC5)nn4)CC3)cc2)c2c(sc(C)c2C)-n2c(C)nnc21 [I-33],,500 to 1500 nM,,
> 3000 nM,> 3000 nM,,,Cc1sc2c(c1C)C(c1ccc(C(=O)N3CCC[C@@H](Cc4ccc(C(=O)N[C@H]5CC[C@H](Oc6ccc(C#N)c(Cl)c6)CC5)nn4)C3)cc1)=N[C@@H](Cc1ncco1)c1nnc(C)n1-2 [I-274],,,,
1500 to 3000 nM,> 3000 nM,,,Cc1sc2c(c1C)C(c1ccc(C[C@@H]3CC[C@]4(C3)CN(c3ccc(C(=O)N[C@H]5CC[C@H](Oc6ccc(C#N)c(Cl)c6)CC5)nn3)CCO4)cc1)=N[C@@H](Cc1ncco1)c1nnc(C)n1-2 [I-264],,,,
< 500 nM,> 3000 nM,,,Cc1sc2c(c1C)C(c1ccc(C#CC3CC4(C3)CN(c3ccc(C(=O)N[C@H]5CC[C@H](Oc6ccc(C#N)c(Cl)c6)CC5)nn3)C4)cn1)=N[C@@H](Cc1ncco1)c1nnc(C)n1-2 [I-280],,,,
< 500 nM,< 500 nM,,,Cc1sc2c(c1C)C(c1ccc(C[C@H]3CCC4CN(c5ccc(C(=O)N[C@H]6CC[C@H](Oc7ccc(C#N)c(Cl)c7)CC6)nn5)CCN4C3)cc1)=N[C@@H](Cc1ncco1)c1nnc(C)n1-2 (some centres unmarked) [I-258],,,,
> 3000 nM,> 3000 nM,,,Cc1sc2c(c1C)C(c1ccc(C#CC3CC4(C3)CN(c3ccc(C(=O)N[C@H]5CC[C@H](Oc6ccc(C#N)c(Cl)c6)CC5)nn3)C4)nc1)=N[C@@H](Cc1ncco1)c1nnc(C)n1-2 [I-282],,,,
< 500 nM,500 to 1500 nM,,,Cc1sc2c(c1C)C(c1ccc(CN(C)C(=O)CCc3ccc(C(=O)N[C@H]4CC[C@H](Oc5ccc(C#N)c(Cl)c5)CC4)nn3)cc1)=N[C@@H](Cc1ncco1)c1nnc(C)n1-2 [I-273],,,,
< 500 nM,< 500 nM,,,Cc1sc2c(c1C)C(c1ccc(CC3CCC4CN(c5ccc(C(=O)N[C@H]6CC[C@H](Oc7ccc(C#N)c(Cl)c7)CC6)nn5)CCN4C3)cc1)=N[C@@H](Cc1ncco1)c1nnc(C)n1-2 (some centres unmarked) [I-283],,,,
< 500 nM,< 500 nM,,,Cc1sc2c(c1C)C(c1ccc(C[C@@H]3CCC4CN(c5ccc(C(=O)N[C@H]6CC[C@H](Oc7ccc(C#N)c(Cl)c7)CC6)nn5)CCN4C3)cc1)=N[C@@H](Cc1ncco1)c1nnc(C)n1-2 (some centres unmarked) [I-259],,,,
,,1500 to 3000 nM,> 3000 nM,Cc1sc2c(c1C)C(c1ccc(C[C@@H]3CC[C@@]4(C3)CN(c3ccc(C(=O)N[C@H]5CC[C@H](Oc6ccc(C#N)c(Cl)c6)CC5)nn3)CCO4)cc1)=N[C@@H](Cc1ncco1)c1nnc(C)n1-2 [I-265],,,,
> 3000 nM,> 3000 nM,,,Cc1sc2c(c1C)C(c1ccc(C(=O)N3CC[C@@]4(CCCN(c5ccc(C(=O)N[C@H]6CC[C@H](Oc7ccc(C#N)c(Cl)c7)CC6)nn5)C4)C3)cc1)=N[C@H](Cc1ncco1)c1nnc(C)n1-2 [I-271],,,,
< 500 nM,,,500 to 1500 nM,Cc1sc2c(c1C)C(c1ccc(OC[C@H]3C[C@]4(CCCN(c5ccc(C(=O)N[C@H]6CC[C@H](Oc7ccc(C#N)c(Cl)c7)CC6)nn5)C4)C3)cc1)=N[C@@H](C)c1nnc(C)n1-2 [I-354],,,,> 3000 nM
> 3000 nM,1500 to 3000 nM,,,Cc1sc2c(c1C)C(c1ccc(C(=O)N3CC[C@@]4(CCCN(c5ccc(C(=O)N[C@H]6CC[C@H](Oc7ccc(C#N)c(Cl)c7)CC6)nn5)C4)C3)cc1)=N[C@@H](Cc1ncco1)c1nnc(C)n1-2 [I-269],,,,
